Data as given in patent US4599360A, “Ophthalmic anti-inflammatory agents” (Sankyo Company Limited, priority 1983, dated 1986).

Tests used:
eye [1] = conditions: cited from earlier work
[2] = result in words; cited from earlier work
eye [3] = assay: Eye irritation test (Draize method, evaluated by method of Kay and Calandra); type: in vivo, male Japanese rabbit; set-up: key: Draize irritation scores per Kay–Calandra method, mean of 4 rabbits
Method: The irritation to the eyes caused by relatively highly concentrated solutions of the compounds of the invention was determined by the Draize method [J. H. Draize et al. J. Pharmacol. Exp. Ther., 82, 377 (1944)] and evaluated by the method of Kay and Calandra [J. H. Kay and J. C. Calandra, J. Soc. Cosmet. Chem., 13, 281 (1962)].
The test solution employed in the present experiment was a simple solution of 10% or 20% by weight of the test compound dissolved in distilled water for injections and adjusted to pH 7 to 8 as required.
Specifically, a male Japanese rabbit of body weight 2.5-3.0 kg was placed in a pillory to fix its head. A single dose of 0.1 ml of the test solution was instilled into its right eye. The symptoms experienced by the anterior portion of the right eye were observed over a period of seven days and the irritation observed was scored. The results are shown in Table 2, in each case averaged over the four rabbits in each test group.

[4] = Acute toxicity, oral administration; set-up: species or system RFVL type mice; conditions: mouse, in vivo

Row | SMILES | adverse effects upon the eye reported in the literature (eye [1]) | Average irritation score, average (eye [3]; 10% solution, 0.1 ml, 1 hour) | Average irritation score, conjunctiva (eye [3]; 10% solution, 0.1 ml, 1 hour) | Average irritation score, cornea (eye [3]; 10% solution, 0.1 ml, 1 hour) | Average irritation score, iris (eye [3]; 10% solution, 0.1 ml, 1 hour) | Average irritation score, average (eye [3]; 10% solution, 0.1 ml, 24 hours) | Average irritation score, conjunctiva (eye [3]; 10% solution, 0.1 ml, 24 hours) | Average irritation score, cornea (eye [3]; 10% solution, 0.1 ml, 24 hours) | Average irritation score, iris (eye [3]; 10% solution, 0.1 ml, 24 hours) | Average irritation score, average (eye [3]; 10% solution, 0.1 ml, 48 hours) | Average irritation score, conjunctiva (eye [3]; 10% solution, 0.1 ml, 48 hours) | Average irritation score, cornea (eye [3]; 10% solution, 0.1 ml, 48 hours) | Average irritation score, iris (eye [3]; 10% solution, 0.1 ml, 48 hours) | Average irritation score, average (eye [3]; 10% solution, 0.1 ml, 72 hours) | Average irritation score, conjunctiva (eye [3]; 10% solution, 0.1 ml, 72 hours) | Average irritation score, cornea (eye [3]; 10% solution, 0.1 ml, 72 hours) | Average irritation score, iris (eye [3]; 10% solution, 0.1 ml, 72 hours) | Average irritation score, average (eye [3]; 10% solution, 0.1 ml, 96 hours) | Average irritation score, conjunctiva (eye [3]; 10% solution, 0.1 ml, 96 hours) | Average irritation score, cornea (eye [3]; 10% solution, 0.1 ml, 96 hours) | other results
1 | CC(C)Cc1ccc(C(C)C(=O)O)cc1 (stereo not shown) [Ibuprofen, ibuprofen] | a variety of visual defects, including toxic amblyopia | – | – | – | – | – | – | – | – | – | – | – | – | – | – | – | – | – | – | – | –
2 | CCCCC1C(=O)N(c2ccccc2)N(c2ccccc2)C1=O [phenylbutazone] | conjunctivitis, toxic amblyopia, Stevens-Johnson syndrome, adhesion of lids to eyeballs, gross scarring of lids, corneal ulceration and scarring, vascularisation of the cornea, loss of vision and possible retinal haemorrhage | – | – | – | – | – | – | – | – | – | – | – | – | – | – | – | – | – | – | – | –
3 | COC(=O)c1ccccc1O [methyl salicylate] | – | – | – | – | – | – | – | – | – | – | – | – | – | – | – | – | – | – | – | – | toxicity for internal administration [2]: too toxic for internal administration
4 | CC(C(=O)[O-])c1ccc(CC2CCCC2=O)cc1.[Na+] (stereo not shown) | – | – | – | – | – | – | – | – | – | – | – | – | – | – | – | – | – | – | – | – | Average irritation score, cornea (eye [3]; rabbit, in vivo): 0; Average irritation score, iris (eye [3]; rabbit, in vivo): 0; LD50 ([4]; female mice): 3150 mg/kg; LD50 ([4]; male mice): 3030 mg/kg
5 | CC(C(=O)[O-])c1ccc(C=C2CCCCC2=O)cc1.[Na+] (stereo not shown) [Compound B, sodium 2-[4-(2-oxocyclohexylidenemethyl)phenyl]propionate] | – | 1.3 | 1.3 | 0 | 0 | 0 | 0 | 0 | 0 | 0 | 0 | 0 | 0 | 0 | 0 | 0 | 0 | 0 | 0 | 0 | Average irritation score, iris (eye [3]; 10% solution, 0.1 ml, 96 hours): 0; Average irritation score, average (eye [3]; 10% solution, 0.1 ml, 7 days): 0; Average irritation score, conjunctiva (eye [3]; 10% solution, 0.1 ml, 7 days): 0; Average irritation score, cornea (eye [3]; 10% solution, 0.1 ml, 7 days): 0; Average irritation score, iris (eye [3]; 10% solution, 0.1 ml, 7 days): 0
6 | CC(C(=O)[O-])c1ccc(C[C@@H]2CCC[C@H]2O)cc1.[Na+] (relative stereo) | – | 1.3 | 1.3 | 0 | 0 | 0 | 0 | 0 | 0 | 0 | 0 | 0 | 0 | 0 | 0 | 0 | 0 | 0 | 0 | 0 | Average irritation score, iris (eye [3]; 10% solution, 0.1 ml, 96 hours): 0; Average irritation score, average (eye [3]; 10% solution, 0.1 ml, 7 days): 0; Average irritation score, conjunctiva (eye [3]; 10% solution, 0.1 ml, 7 days): 0; Average irritation score, cornea (eye [3]; 10% solution, 0.1 ml, 7 days): 0; Average irritation score, iris (eye [3]; 10% solution, 0.1 ml, 7 days): 0
